system: AMP-activated protein kinase (AMPK); assay: ADP Quest assay for AMPK activators; assay type: biochemical; design: key: fold AMPK activation at 30 μM activator vs none; conditions: fold of AMPK activation to phosphorylate SAMS peptide without and with an activator at the concentration of 30 μM
Description: This method evaluates AMP-activated protein kinase (AMPK) activity through detecting the accumulation of ADP product using an ADP Quest kit and determining the E30 values of the small molecular AMPK activators. ADP Quest kit (DiscoveRx, Fremont, Calif.) is stored at −20° C. before use. Before an experiment, thaw the kit (include assay buffer, ADP standard solution, reagent A and reagent B) and equilibrate to room temperature. Dispense the ADP Quest reagents into single-use aliquots and store at −20° C. The compound concentrations typically range from 0 μM to 100 μM by 2-fold dilution. AMP concentrations range from 0.98 μM to 1 mM as the reference control. In an assay, thaw and equilibrate the assay buffer, reagent A and reagent B to room temperature for 30 minutes prior to use. Mix ATP, SAMS peptide substrate and compound, and place them into the 384-well assay plate. Add reagent A and B based on the assay kit protocol. Incubate the assay plate at room temperature for 30 minutes after addition the mixture followed by the addition of AMPK protein (Invitrogen, CA) to initiate the AMPK phosphorylation reaction. At the same time, reactions with AMPK activator AMP in the absence of enzyme is included as blank control. The reaction fluorescence signal is monitored and recorded on Envision in kinetic mode with the excitation wavelength of 530 nm and emission wavelength of 590 nm. The E30 value, defined as the fold of AMPK activation to phosphorylate SAMS peptide without and with an activator at the concentration of 30 μM, is calculated and analyzed using Prism 5.0.

Compound | E30
CC1(C)CC(c2ccccc2NS(=O)(=O)c2cccc(F)c2)Nc2ccc(Cl)cc21 (stereo not shown) [Example-14, N-[2-(6-Chloro-4,4-dimethyl-1,2,3,4-tetrahydro-quinolin-2-yl)-phenyl]-3-fluoro-benzenesulfonamide] | 1.78
CC1(C)CC(c2ccccc2NS(=O)(=O)c2ccccc2F)Nc2ccc(Cl)cc21 (stereo not shown) [Example-21, N-[2-(6-Chloro-4,4-dimethyl-1,2,3,4-tetrahydro-quinolin-2-yl)-phenyl]-2-fluoro-benzenesulfonamide] | 1.75
CC1(C)CC(c2ccccc2NS(=O)(=O)c2ccc(F)cc2)Nc2ccc(C(=O)O)cc21 (stereo not shown) [Example-40, 2-[2-(4-Fluoro-benzenesulfonylamino)-phenyl]-4,4-dimethyl-1,2,3,4-tetrahydro-quinoline-6-carboxylic acid] | 3.01
CC(C)S(=O)(=O)Nc1ccccc1C1CC(C)(C)c2cc(C#N)ccc2N1 (stereo not shown) [Example-50, Propane-2-sulfonic acid [2-(6-cyano-4,4-dimethyl-1,2,3,4-tetrahydro-quinolin-2-yl)-phenyl]-amide] | 1.19
CC1(C)CC(c2ccccc2NC2(C(=O)O)CC2)Nc2ccc(Cl)cc21 (stereo not shown) [Example-22, 1-[2-(6-Chloro-4,4-dimethyl-1,2,3,4-tetrahydro-quinolin-2-yl)-phenylamino]-cyclopropanecarboxylic acid] | 1.40
CC1(C)CC(c2ccccc2NC(=O)c2ccc(F)cc2)Nc2ccc(C(=O)O)cc21 (stereo not shown) [Example-32, 2-[2-(4-Fluoro-benzoylamino)-phenyl]-4,4-dimethyl-1,2,3,4-tetrahydro-quinoline-6-carboxylic acid] | 1.31
CN1c2ccc(C#N)cc2C(C)(C)CC1c1cccc(NC2(C(=O)O)CC2)c1 (stereo not shown) [Example-28, 1-[3-(6-Cyano-1,4,4-trimethyl-1,2,3,4-tetrahydro-quinolin-2-yl)-phenylamino]-cyclopropanecarboxylic acid] | 2.46
CC1(C)CC(c2ccccc2NS(=O)(=O)c2ccccc2)Nc2ccc(C(=O)O)cc21 (stereo not shown) [Example-41, 2-(2-Benzenesulfonylamino-phenyl)-4,4-dimethyl-1,2,3,4-tetrahydro-quinoline-6-carboxylic acid] | 2.63
CCS(=O)(=O)Nc1ccccc1C1CC(C)(C)c2cc(C(=O)O)ccc2N1 (stereo not shown) [Example-33, 2-(2-Ethanesulfonylamino-phenyl)-4,4-dimethyl-1,2,3,4-tetrahydro-quinoline-6-carboxylic acid] | 2.13
CC1(C)CC(c2cccc(NC3(C(=O)O)CC3)c2)Nc2c(C(=O)O)cccc21 (stereo not shown) [Example-5, 2-[3-(1-Carboxy-cyclopropylamino)-phenyl]-4,4-dimethyl-1,2,3,4-tetrahydro-quinoline-8-carboxylic acid] | 2.44

Second part, the molecule after the results:

E30 | Compound
1.15 | CC1(C)CC(c2ccccc2NS(=O)(=O)c2ccccc2F)Nc2ccc(C(F)(F)F)cc21 (stereo not shown) [Example-44, N-[2-(4,4-Dimethyl-6-trifluoromethyl-1,2,3,4-tetrahydro-quinolin-2-yl)-phenyl]-2-fluoro-benzenesulfonamide]
1.34 | CC1(C)CC(c2cccc(NS(=O)(=O)c3ccc(F)cc3)c2)Nc2ccc(C(F)(F)F)cc21 (stereo not shown) [Example-58, N-[3-(4,4-Dimethyl-6-trifluoromethyl-1,2,3,4-tetrahydro-quinolin-2-yl)-phenyl]-4-fluoro-benzenesulfonamide]
2.43 | CC1(C)CC(c2cccc(NC3(C(=O)O)CC3)c2)Nc2ccc(C#N)cc21 (stereo not shown) [Example-4, 1-[3-(6-Cyano-4,4-dimethyl-1,2,3,4-tetrahydro-quinolin-2-yl)-phenylamino]-cyclopropanecarboxylic acid]
2.48 | CN1c2ccc(C(F)(F)F)cc2C(C)(C)CC1c1cccc(NC(C)(C)C(=O)O)c1 (stereo not shown) [Example-11, 2-Methyl-2-[3-(1,4,4-trimethyl-6-trifluoromethyl-1,2,3,4-tetrahydro-quinolin-2-yl)-phenylamino]-propionic acid]
2.70 | CC(C)(Nc1cccc(C2CC(C)(C)c3cc(C#N)cc(Cl)c3N2)c1)C(=O)O (stereo not shown) [Example-29, 2-[3-(8-Chloro-6-cyano-4,4-dimethyl-1,2,3,4-tetrahydro-quinolin-2-yl)-phenylamino]-2-methyl-propionic acid]
2.27 | CC(C)(Nc1cccc(C2CC(C)(C)c3cc(Cl)cc(C(=O)O)c3N2)c1)C(=O)O (stereo not shown) [Example-7, 2-[3-(1-Carboxy-1-methyl-ethylamino)-phenyl]-6-chloro-4,4-dimethyl-1,2,3,4-tetrahydro-quinoline-8-carboxylic acid]
2.34 | CC(C)(Nc1cccc(C2CC(C)(C)c3cc(C(F)(F)F)ccc3N2)c1)C(=O)O (stereo not shown) [Example-9, 2-[3-(4,4-Dimethyl-6-trifluoromethyl-1,2,3,4-tetrahydro-quinolin-2-yl)-phenylamino]-2-methyl-propionic acid]
2.08 | CN1c2ccc(C(F)(F)F)cc2C(C)(C)CC1c1cccc(NC2(C(=O)O)CC2)c1 (stereo not shown) [Example-13, 1-[3-(1,4,4-Trimethyl-6-trifluoromethyl-1,2,3,4-tetrahydro-quinolin-2-yl)-phenylamino]-cyclopropanecarboxylic acid]
2.63 | CC1(C)CC(c2cccc(NC3(C(=O)O)CC3)c2)Nc2ccc(Cl)cc21 (stereo not shown) [Example-2, 1-[3-(6-Chloro-4,4-dimethyl-1,2,3,4-tetrahydro-quinolin-2-yl)-phenylamino]-cyclopropanecarboxylic acid]

— patent publication US8546427B2, “Tetrahydroquinoline derivatives” (Hoffmann-La Roche Inc., priority 2010, dated 2013)
